Assays:
Format in all cases: functional, cell-based
EB2 = test: cells; details: Homo sapiens;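 further: growth inhibition of EB2 cells, read out with a cell viability assay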
Description: SANGER: Inhibition of human EB2 cell growth in a cell viability assay.

RPMI-6666 = test: cells; details: Homo sapiens
Description: SANGER: Inhibition of human RPMI-6666 cell growth in a cell viability assay.

JIYOYE = test: cells; details: Homo sapiens
Description: SANGER: Inhibition of human JiyoyeP-2003 cell growth in a cell viability assay.

LC4-1 = test: cells; details: Homo sapiens;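 further: growth inhibition of LC4-1 cells, read out with a cell viability assay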
Description: SANGER: Inhibition of human LC4-1 cell growth in a cell viability assay.

NCI-H1882 = test: cells; details: Homo sapiens
Description: SANGER: Inhibition of human NCI-H1882 cell growth in a cell viability assay.

MHH-CALL-2 = test: cells; details: Homo sapiens;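 further: growth inhibition of the cell line, read out in a cell viability assay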
Description: SANGER: Inhibition of human MHH-CALL-2 cell growth in a cell viability assay.

PF-382 = test: cells; details: Homo sapiens
Description: SANGER: Inhibition of human PF-382 cell growth in a cell viability assay.

L-540 = test: cells; details: Homo sapiens;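 further: growth inhibition of the human L-540 cell line, read out with a viability assay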
Description: SANGER: Inhibition of human L-540 cell growth in a cell viability assay.

K052 = test: cells; details: Homo sapiens;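 further: Read-out from a cell viability assay, IC50 reflecting suppression of K052 cell growth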
Description: SANGER: Inhibition of human K052 cell growth in a cell viability assay.

RPMI 8402 = test: SANGER: Inhibition of human RPMI-8402 cell growth in a cell viability assay.
NCI-H889 = test: cells; details: Homo sapiens;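 further: cell growth inhibition of the cell line, read out with a viability assay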
Description: SANGER: Inhibition of human NCI-H889 cell growth in a cell viability assay.

YT = test: cells; details: Homo sapiens
Description: SANGER: Inhibition of human YT cell growth in a cell viability assay.

TALL-1 = test: cells; details: Homo sapiens;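 further: growth inhibition of cultured human TALL-1 cells, read out by a cell viability assay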
Description: SANGER: Inhibition of human TALL-1 cell growth in a cell viability assay.

SNU-C1 = test: cells; details: Homo sapiens;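 further: growth inhibition of SNU-C1 human cells, read out by a cell viability assay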
Description: SANGER: Inhibition of human SNU-C1 cell growth in a cell viability assay.

LC-1F = test: cells; details: Homo sapiens;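 further: growth inhibition of human LC-1F cells, read out with a cell viability assay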
Description: SANGER: Inhibition of human LC-1F cell growth in a cell viability assay.

Raji = test: cells; details: Homo sapiens;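 further: cell viability assay measuring inhibition of Raji cell growth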
Description: SANGER: Inhibition of human Raji cell growth in a cell viability assay.

ECC4 = test: cells; details: Homo sapiens;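 further: growth inhibition of ECC4 cells, read out with a cell viability assay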
Description: SANGER: Inhibition of human ECC4 cell growth in a cell viability assay.

HCC1599 = test: cells; details: Homo sapiens;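 further: growth inhibition of HCC1599 cells, read out in a cell viability assay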
Description: SANGER: Inhibition of human HCC1599 cell growth in a cell viability assay.

NCI-H1522 = test: cells; details: Homo sapiens;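 further: growth inhibition of NCI-H1522 cells, read out with a cell viability assay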
Description: SANGER: Inhibition of human NCI-H1522 cell growth in a cell viability assay.

BC1 cell line = test: SANGER: Inhibition of human BC-1 cell growth in a cell viability assay.
SUP-T1 = test: cells; details: Homo sapiens;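 further: growth inhibition of human SUP-T1 cells, read out as cell viability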
Description: SANGER: Inhibition of human SUP-T1 cell growth in a cell viability assay.

NB1 = test: cells; details: Homo sapiens;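 further: reduction of NB1 cell proliferation, read out with a viability assay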
Description: SANGER: Inhibition of human NB1 cell growth in a cell viability assay.

IMR-5 = test: cells; details: Homo sapiens;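 further: growth inhibition of human IMR-5 cells, read out with a cell viability assay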
Description: SANGER: Inhibition of human IMR-5 cell growth in a cell viability assay.

KARPAS-422 = test: cells; details: Homo sapiens
Description: SANGER: Inhibition of human KARPAS-422 cell growth in a cell viability assay.

BOKU = test: cells; details: Homo sapiens;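 further: growth inhibition of the human BOKU cell line, read out by a cell viability assay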
Description: SANGER: Inhibition of human BOKU cell growth in a cell viability assay.

RL = test: cells; details: Homo sapiens
Description: SANGER: Inhibition of human RL cell growth in a cell viability assay.

NCI-H345 = test: cells; details: Homo sapiens;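 further: growth inhibition of NCI-H345 cells measured with a cell viability assay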
Description: SANGER: Inhibition of human NCI-H345 cell growth in a cell viability assay.

GDM-1 = test: cells; details: Homo sapiens;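 further: cell viability readout used to measure growth inhibition of human GDM-1 cells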
Description: SANGER: Inhibition of human GDM-1 cell growth in a cell viability assay.

CMK = test: cells; details: Homo sapiens;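 further: growth inhibition of CMK cells, read out as cell viability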
Description: SANGER: Inhibition of human CMK cell growth in a cell viability assay.

NCI-H2196 = test: cells; details: Homo sapiens;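 further: cell viability assay used as the readout of growth inhibition in NCI-H2196 cells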
Description: SANGER: Inhibition of human NCI-H2196 cell growth in a cell viability assay.

WSU-NHL = test: cells; details: Homo sapiens;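 further: growth inhibition of human WSU-NHL cells, read out with a cell viability assay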
Description: SANGER: Inhibition of human WSU-NHL cell growth in a cell viability assay.

REH = test: cells; details: Homo sapiens;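 further: growth inhibition of REH cells determined with a cell viability read-out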
Description: SANGER: Inhibition of human REH cell growth in a cell viability assay.

THP-1 = test: cells; details: Homo sapiens;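 further: growth inhibition of THP-1 cells, read out via a cell viability assay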
Description: SANGER: Inhibition of human THP-1 cell growth in a cell viability assay.

BL-70 = test: SANGER: Inhibition of human BL-70 cell growth in a cell viability assay.
Daudi = test: cells; details: Homo sapiens;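 further: growth inhibition of Daudi cells, read out by a viability assay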
Description: SANGER: Inhibition of human Daudi cell growth in a cell viability assay.

CA46 = test: cells; details: Homo sapiens;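 further: growth inhibition of human CA46 cells, read out by a cell viability assay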
Description: SANGER: Inhibition of human CA46 cell growth in a cell viability assay.

LP-1 = test: cells; details: Homo sapiens;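 further: growth inhibition of human LP-1 cells, with the read-out taken from a cell viability assay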
Description: SANGER: Inhibition of human LP-1 cell growth in a cell viability assay.

NCI-H1436 = test: cells; details: Homo sapiens;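 further: growth suppression of human NCI-H1436 cells, determined with a cell viability readout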
Description: SANGER: Inhibition of human NCI-H1436 cell growth in a cell viability assay.

OPM-2 = test: cells; details: Homo sapiens;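 further: growth of OPM-2 cells measured with a viability assay, IC50 for suppression of proliferation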
Description: SANGER: Inhibition of human OPM-2 cell growth in a cell viability assay.

UACC-812 = test: cells; details: Homo sapiens
Description: SANGER: Inhibition of human UACC-812 cell growth in a cell viability assay.

BL-41 = test: cells; details: Homo sapiens;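 further: growth inhibition of human BL-41 cells, read out with a cell viability assay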
Description: SANGER: Inhibition of human BL-41 cell growth in a cell viability assay.

MOLT-13 = test: cells; details: Homo sapiens;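 further: IC50 for suppression of MOLT-13 cell growth, read out with a cell viability assay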
Description: SANGER: Inhibition of human MOLT-13 cell growth in a cell viability assay.

SMILES: CO[C@H]1C[C@@H]2CC[C@@H](C)[C@@](O)(O2)C(=O)C(=O)N2CCCC[C@H]2C(=O)O[C@H]([C@H](C)C[C@@H]2CC[C@@H](O)[C@H](OC)C2)CC(=O)[C@H](C)/C=C(\C)[C@@H](O)[C@@H](OC)C(=O)[C@H](C)C[C@H](C)/C=C/C=C/C=C/1C [SIROLIMUS]
- IC50 (EB2): > 100 nM
- IC50 (RPMI-6666): 24.4 nM
- IC50 (JIYOYE): 10.9 nM
- IC50 (LC4-1): 86.7 nM
- IC50 (NCI-H1882): > 100 nM
- IC50 (MHH-CALL-2): > 100 nM
- IC50 (PF-382): 96.8 nM
- IC50 (L-540): 10.4 nM
- IC50 (K052): > 100 nM
- IC50 (RPMI 8402): 21.8 nM
- IC50 (NCI-H889): > 100 nM
- IC50 (YT): > 100 nM
- IC50 (TALL-1): > 100 nM
- IC50 (SNU-C1): > 100 nM
- IC50 (LC-1F): > 100 nM
- IC50 (Raji): 89.7 nM
- IC50 (ECC4): 44.8 nM
- IC50 (HCC1599): > 100 nM
- IC50 (NCI-H1522): > 100 nM
- IC50 (BC1 cell line): 31.3 nM
- IC50 (SUP-T1): > 100 nM
- IC50 (NB1): > 100 nM
- IC50 (IMR-5): > 100 nM
- IC50 (KARPAS-422): > 100 nM
- IC50 (BOKU): > 100 nM
- IC50 (RL): > 100 nM
- IC50 (NCI-H345): > 100 nM
- IC50 (GDM-1): > 100 nM
- IC50 (CMK): 84.2 nM
- IC50 (NCI-H2196): > 100 nM
- IC50 (WSU-NHL): > 100 nM
- IC50 (REH): > 100 nM
- IC50 (THP-1): > 100 nM
- IC50 (BL-70): 28.4 nM
- IC50 (Daudi): 0.434 nM
- IC50 (CA46): > 100 nM
- IC50 (LP-1): > 100 nM
- IC50 (NCI-H1436): > 100 nM
- IC50 (OPM-2): 4.15 nM
- IC50 (UACC-812): > 100 nM
- IC50 (BL-41): 43.7 nM

SMILES: CCC(=O)N1CCN(c2ccc(-n3c(=O)ccc4cnc5ccc(-c6cnc7ccccc7c6)cc5c43)cc2C(F)(F)F)CC1 [TORIN1]
- IC50 (EB2): > 1200 nM
- IC50 (RPMI-6666): 288 nM
- IC50 (JIYOYE): 108 nM
- IC50 (LC4-1): 87.4 nM
- IC50 (NCI-H1882): 167 nM
- IC50 (MHH-CALL-2): 335 nM
- IC50 (PF-382): 75.7 nM
- IC50 (L-540): 301 nM
- IC50 (K052): 119 nM
- IC50 (RPMI 8402): 77.9 nM
- IC50 (NCI-H889): > 1200 nM
- IC50 (YT): > 1200 nM
- IC50 (TALL-1): 229 nM
- IC50 (SNU-C1): 382 nM
- IC50 (LC-1F): 39.9 nM
- IC50 (Raji): > 1200 nM
- IC50 (ECC4): 1190 nM
- IC50 (HCC1599): 48.8 nM
- IC50 (NCI-H1522): 649 nM
- IC50 (BC1 cell line): > 1200 nM
- IC50 (SUP-T1): > 1200 nM
- IC50 (NB1): 279 nM
- IC50 (IMR-5): 165 nM
- IC50 (KARPAS-422): 124 nM
- IC50 (BOKU): 372 nM
- IC50 (RL): > 1200 nM
- IC50 (NCI-H345): > 1200 nM
- IC50 (GDM-1): 372 nM
- IC50 (CMK): 15.4 nM
- IC50 (NCI-H2196): 330 nM
- IC50 (WSU-NHL): > 1200 nM
- IC50 (REH): > 1200 nM
- IC50 (THP-1): > 1200 nM
- IC50 (BL-70): 3.37 nM
- IC50 (Daudi): 42.3 nM
- IC50 (CA46): 509 nM
- IC50 (LP-1): 89.4 nM
- IC50 (NCI-H1436): > 1200 nM
- IC50 (OPM-2): 12.9 nM
- IC50 (MOLT-13): 302 nM
- IC50 (BL-41): 6.96 nM

SMILES: Cc1cc(Nc2cc(N3CCN(C)CC3)nc(Sc3ccc(NC(=O)C4CC4)cc3)n2)n[nH]1 [TOZASERTIB]
- IC50 (EB2): > 2000 nM
- IC50 (RPMI-6666): > 2000 nM
- IC50 (JIYOYE): > 2000 nM
- IC50 (LC4-1): > 2000 nM
- IC50 (NCI-H1882): > 2000 nM
- IC50 (MHH-CALL-2): > 2000 nM
- IC50 (PF-382): > 2000 nM
- IC50 (L-540): > 2000 nM
- IC50 (K052): 195 nM
- IC50 (RPMI 8402): > 2000 nM
- IC50 (NCI-H889): > 2000 nM
- IC50 (YT): > 2000 nM
- IC50 (TALL-1): > 2000 nM
- IC50 (SNU-C1): > 2000 nM
- IC50 (LC-1F): > 2000 nM
- IC50 (Raji): > 2000 nM
- IC50 (ECC4): > 2000 nM
- IC50 (HCC1599): 809 nM
- IC50 (NCI-H1522): > 2000 nM
- IC50 (BC1 cell line): > 2000 nM
- IC50 (SUP-T1): > 2000 nM
- IC50 (NB1): > 2000 nM
- IC50 (IMR-5): 355 nM
- IC50 (KARPAS-422): 373 nM
- IC50 (BOKU): > 2000 nM
- IC50 (RL): > 2000 nM
- IC50 (NCI-H345): > 2000 nM
- IC50 (GDM-1): > 2000 nM
- IC50 (CMK): 1420 nM
- IC50 (NCI-H2196): > 2000 nM
- IC50 (WSU-NHL): > 2000 nM
- IC50 (REH): > 2000 nM
- IC50 (THP-1): > 2000 nM
- IC50 (BL-70): 390 nM
- IC50 (Daudi): > 2000 nM
- IC50 (CA46): > 2000 nM
- IC50 (LP-1): > 2000 nM
- IC50 (NCI-H1436): > 2000 nM
- IC50 (OPM-2): > 2000 nM
- IC50 (BL-41): 104 nM

— ChEMBL document CHEMBL1201861, “Genomics of Drug Sensitity in Cancer screening data, Wellcome Trust Sanger Institute”
